Assay results as given in patent US20140094493A1, “Novel Ether Linked Compounds and Improved Treatments for Cardiac and Cardiovascular Disease” (priority 2011, published 2014).
Counter-ions that a name gives are not always drawn.

How the values were obtained:
human beta2-adrenoceptor = target: T1, human beta2-adrenoceptor (Homo sapiens, UniProt P07550); test: 3H-CGP12177 whole-cell binding, beta2; settings: 3H-CGP 12177 whole cell binding, CHO cells expressing human beta2-adrenoceptor, logarithmic value; for Kd: read-out: Beta 2 Log KD (converted)
T1 construct: expressed in transfected cells; host or cells: CHO cells
T1 sequence (P07550 whole entry): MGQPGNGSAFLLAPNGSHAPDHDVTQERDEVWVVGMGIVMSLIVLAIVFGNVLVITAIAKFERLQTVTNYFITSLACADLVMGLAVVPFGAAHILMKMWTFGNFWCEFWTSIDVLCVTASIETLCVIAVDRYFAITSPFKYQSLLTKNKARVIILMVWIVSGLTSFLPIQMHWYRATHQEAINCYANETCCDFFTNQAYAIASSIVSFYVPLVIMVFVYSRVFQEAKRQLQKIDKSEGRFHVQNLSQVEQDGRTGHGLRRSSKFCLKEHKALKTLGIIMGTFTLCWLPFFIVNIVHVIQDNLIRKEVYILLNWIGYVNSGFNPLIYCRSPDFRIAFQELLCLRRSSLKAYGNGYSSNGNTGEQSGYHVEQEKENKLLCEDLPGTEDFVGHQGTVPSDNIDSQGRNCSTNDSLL
Protocol: (§1) Selectivity of ligands for the three beta-adrenoceptors was assessed by whole-cell binding studies using ^3H-CGP12177 in CHO cells expressing the human beta1, beta2 or beta3-adrenoceptors respectively essentially as described by Baker (2005; Br. J Pharmacol: 144, 317-22) Values shown are KD values determined as described by Baker (2005). KD represents the concentration of compound required to occupy 50% of the receptors in cells or tissues.
(§2) The selectivity of a ligand is given by the ratio of beta-1 to beta-2 KD. Accordingly a difference of one in the logarithmic values thereof represents a 10-fold selectivity, a difference of 2 represents 100-fold selectivity and a difference of 3 represents 1000-fold selectivity etc.

human beta1-adrenoceptor = target: T2, human beta1-adrenoceptor (Homo sapiens, UniProt P08588); test: 3H-CGP12177 whole-cell binding, beta1; settings: for Kd / Beta 1 Log KD: 3H-CGP 12177 whole cell binding, CHO cells expressing human beta1-adrenoceptor, logarithmic value; for Kd: read-out: Beta 1 Log KD (converted); for Beta 1-Beta 2 Log KD (selectivity): difference of Log KD beta1 and beta2, 1 = 10-fold, 2 = 100-fold, 3 = 1000-fold selectivity
T2 construct: expressed in transfected cells; host or cells: CHO cells
T2 sequence (P08588 whole entry): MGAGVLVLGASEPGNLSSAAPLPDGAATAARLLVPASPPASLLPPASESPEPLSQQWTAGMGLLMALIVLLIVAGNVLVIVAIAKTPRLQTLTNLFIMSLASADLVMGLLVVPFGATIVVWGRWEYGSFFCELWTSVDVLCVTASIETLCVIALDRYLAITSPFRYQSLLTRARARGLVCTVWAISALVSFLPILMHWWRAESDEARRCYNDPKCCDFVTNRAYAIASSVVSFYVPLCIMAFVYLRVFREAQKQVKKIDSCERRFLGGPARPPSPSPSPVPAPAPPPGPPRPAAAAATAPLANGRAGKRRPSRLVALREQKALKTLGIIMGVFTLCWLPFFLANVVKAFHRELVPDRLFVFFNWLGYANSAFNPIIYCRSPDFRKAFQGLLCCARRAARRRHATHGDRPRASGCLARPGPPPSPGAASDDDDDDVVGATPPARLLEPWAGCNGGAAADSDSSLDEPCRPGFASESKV
Protocol: as §1, §2

β1-adrenoceptor = β1-adrenoceptor (Homo sapiens, UniProt P08588); settings: background statement on known compounds; cited from earlier work
Sequence of β1-adrenoceptor (P08588 whole entry, species assumed): as the sequence (P08588 whole entry) above

| Compound | melting point [°C] | Kd (human beta2-adrenoceptor) [nM] | Kd (human beta1-adrenoceptor) [nM] | Beta 1-Beta 2 Log KD (selectivity) (human beta1-adrenoceptor) | Beta 2 Log KD (human beta2-adrenoceptor) | Beta 1 Log KD (human beta1-adrenoceptor) | β1-selectivity (β1-adrenoceptor) |
| --- | --- | --- | --- | --- | --- | --- | --- |
| O[C@@H](CNCCOc1ccc2ncccc2c1)COc1ccc2c(c1)OC[C@@H](COCC1CC1)O2 [Example 14] | – | 1260 | 4.17 | 2.48 | – | – | – |
| CC(=O)Nc1ccc(OCCNC[C@H](O)COc2ccc3c(c2)OC[C@@H](COCC2CC2)O3)cc1 [Example 15] | 123 to 125 | 4370 | 7.59 | 2.76 | – | – | – |
| O=C1NCc2cc(OCCNC[C@H](O)COc3ccc4c(c3)OC[C@@H](COCC3CC3)O4)ccc21 [Example 18] | – | 4680 | 4.57 | 3.01 | – | – | – |
| O=C1NCc2cc(OCCNC[C@H](O)COc3ccc4c(c3)OC[C@@H](COc3ccc(F)cc3)O4)ccc21 [Example 25] | – | 347 | 0.794 | 2.64 | – | – | – |
| O=C1NCc2cc(OCCNC[C@H](O)COc3ccc4c(c3)OC[C@H](COc3ccc(F)cc3)O4)ccc21 [Example 26] | 161 to 164 | 2510 | 4.17 | 2.78 | – | – | – |
| O=C1NCc2cc(OCCNC[C@H](O)COc3ccc4cc(OCC5CC5)ccc4c3)ccc21 [Example 29] | 194 to 196 | > 100000 | 79.4 | <3.10 | – | – | – |
| O=C1NCc2cc(OCCNC[C@H](O)COc3ccc4c(c3)OC[C@@H](COc3ccncc3)O4)ccc21 [Example 30] | 192 to 194 | 72400 | 57.5 | 3.10 | – | – | – |
| O=C1NCc2cc(OCCNC[C@H](O)COc3ccc4c(c3)OC[C@@H](COc3cccc(F)c3)O4)ccc21 [Example 33] | – | 2000 | 2.82 | 2.85 | – | – | – |
| O=C1NCc2cc(OCCNC[C@H](O)COc3ccc4c(c3)OC[C@@H](COc3ccc(OC(F)(F)F)cc3)O4)ccc21 [Example 34] | 188 to 189 | 7760 | 3.39 | 3.37 | – | – | – |
| O=C1NCc2cc(OCCNC[C@H](O)COc3ccc4c(c3)OC[C@@H](COc3ccccc3F)O4)ccc21 [Example 35] | – | – | – | 3.70 | −4.98 | −8.68 | – |
| COc1c(F)cc(OC[C@@H]2COc3cc(OC[C@@H](O)CNCCOc4ccc5c(c4)CNC5=O)ccc3O2)cc1F [Example 37] | 182 to 184 | 6310 | 2.69 | 3.37 | – | – | – |
| O=C1NCc2cc(OCCNC[C@H](O)COc3ccc4c(c3)OC[C@@H](COc3c(F)cccc3F)O4)ccc21 [Example 38] | – | – | – | 3.34 | −5.20 | −8.54 | – |
| Cc1ccccc1OC[C@@H]1COc2cc(OC[C@@H](O)CNCCOc3ccc4c(c3)CNC4=O)ccc2O1 [Example 39] | 146 to 148 | 871 | 1.07 | 2.91 | – | – | – |
| COc1ccc(OCC2COc3cc(OCC(O)CNCCOc4ccc5c(c4)CNC5=O)ccc3O2)c(F)c1 (centres unmarked) [Example 40] | 145 to 147 | 1620 | 3.24 | 2.70 | – | – | – |
| O=C1NCc2cc(OCCNC[C@H](O)COc3ccc(CCCN4CCC(F)(F)CC4)cc3)ccc21 [Example 42] | 132 to 133 | 407 | 1.95 | 2.32 | – | – | – |
| O=C1NCc2cc(OCCNC[C@H](O)COc3ccc4c(c3)OC[C@@H](CN3CCC(F)(F)CC3)O4)ccc21 [Example 43, 5-(2-((S)-3-((R)-2-((4,4-difluoropiperidin-1-yl)methyl)-2,3-dihydrobenzo[b][1,4]-dioxin-6-yloxy)-2-hydroxypropylamino)ethoxy)isoindolin-1-one] | 134 to 135 | 2750 | 4.27 | 2.81 | – | – | – |
| CCOCCOc1ccc(OC[C@@H](O)CNCCc2ccc(OC)c(OC)c2)cc1 [Example D-140S] | – | – | – | – | – | – | 4,400 fold |
| N#Cc1cc(OCCOCC2CC2)ccc1OCC(O)CNCCNC(=O)Nc1ccc(O)cc1 (centres unmarked) [LK-204545] | – | – | – | – | – | – | 1,778 fold |

Further lines, with some results ahead:

| melting point [°C] | Kd (human beta2-adrenoceptor) [nM] | Kd (human beta1-adrenoceptor) [nM] | Beta 1-Beta 2 Log KD (selectivity) (human beta1-adrenoceptor) | Beta 2 Log KD (human beta2-adrenoceptor) | Beta 1 Log KD (human beta1-adrenoceptor) | Compound | β1-selectivity (β1-adrenoceptor) |
| --- | --- | --- | --- | --- | --- | --- | --- |
| 234 to 235 | – | – | – | – | – | NC(=O)c1ccc(OCCNC[C@H](O)COc2ccc(CCCN3CCC(F)(F)CC3)cc2)cc1 (as salt: hydrochloride) [Example 41, (S)-4-(2-(3-(4-(3-(4,4-difluoropiperidin-1-yl)propyl)phenoxy)-2-hydroxypropyl)amino)-ethoxy)benzamide dihydrochloride] | – |
| – | 759 | 7.41 | 2.01 | – | – | COc1ccc(OCCNCC(O)COc2ccc(OCCOC3CCCC3)cc2)cc1 (racemic) [Example 3] | – |
| – | – | – | 2.40 | – | – | NC(=O)c1ccc(OCCNCC(O)COc2ccc(OCCOC3CCCC3)cc2)cc1 (centres unmarked) [Example 1] | – |
| 73 to 75 | 1050 | 11.5 | 1.96 | – | – | CN(C)C(=O)c1ccc(OCCNC[C@H](O)COc2ccc(OCCOC3CCCC3)cc2)cc1 [Example 6] | – |
| 132 to 135 | 1320 | 2.88 | 2.66 | – | – | NC(=O)c1ccc(OCCNC[C@H](O)COc2ccc(CCCOCC3CC3)cc2)cc1 [Example 8] | – |
| 120 to 122 | 355 | 0.912 | 2.59 | – | – | NC(=O)c1ccc(OCCNC[C@H](O)COc2ccc(CCCOC3CCCC3)cc2)cc1 [Example 9] | – |
| 136 to 138 | 10200 | 23.4 | 2.64 | – | – | NC(=O)c1ccc(OCCNC[C@H](O)COc2ccc3c(c2)OC[C@@H](COCC2CC2)O3)cc1 [Example 11] | – |
| 128 to 130 | 138 | 0.832 | 2.22 | – | – | O[C@@H](CNCCOc1ccc2ncccc2c1)COc1ccc(CCCOCC2CC2)cc1 [Example 12] | – |
| – | – | – | 2.3 | −6.53 | −8.83 | CC(=O)Nc1ccc(OCCNC[C@H](O)COc2ccc(CCCOCC3CC3)cc2)cc1 [Example 13] | – |
| 134 to 136 | 5010 | 6.17 | 2.91 | – | – | NC(=O)c1ccc(OCCNC[C@H](O)COc2ccc3c(c2)OC[C@@H](COC2CCCC2)O3)cc1 [Example 16] | – |
| – | – | – | 2.28 | −6.71 | −8.99 | NC(=O)c1ccc(OCCNC[C@H](O)COc2ccc(CCOCC3CC3)cc2)cc1 [Example 20] | – |
| – | 427 | 2.75 | 2.19 | – | – | O[C@@H](CNCCOc1ccc2nccnc2c1)COc1ccc(CCCOCC2CC2)cc1 [Example 21] | – |
| 183 to 185 | 1410 | 8.32 | 2.23 | – | – | O=c1[nH]c2ccc(OCCNC[C@H](O)COc3ccc(CCCOCC4CC4)cc3)cc2[nH]1 [Example 22] | – |
| 148 to 150 | > 100000 | 117 | <2.93 | – | – | NC(=O)c1ccc(OCCNC[C@H](O)COc2ccc3cc(COCC4CC4)ccc3c2)cc1 [Example 28] | – |
| – | 1350 | 1.82 | 2.87 | – | – | NC(=O)c1ccc(OCCNC[C@H](O)COc2ccc(CCCN3CCC(F)(F)CC3)cc2)cc1 [Example 41, (S)-4-(2-(3-(4-(3-(4,4-difluoropiperidin-1-yl)propyl)phenoxy)-2-hydroxypropyl)amino)-ethoxy)benzamide dihydrochloride] | – |
| 101 to 103 | > 100000 | 316 | <2.50 | – | – | CC1(C)COc2cc(OC[C@@H](O)CNCCOc3ccc(C(N)=O)cc3)ccc2O1 [Example 44, (S)-4-(2-(3-(2,2-dimethyl-2,3-dihydrobenzo[b][1,4]dioxin-6-yloxy)-2-hydroxypropyl-amino)ethoxy)benzamide] | – |
| – | – | – | 2.65 | −6.52 | −9.17 | O=C1NCc2cc(OCCNC[C@H](O)COc3ccc(CCCOC4CC4)cc3)ccc21 [Example 45] | – |
| – | – | – | 2.57 | −6.10 | −8.67 | NC(=O)c1ccc(OCCNC[C@H](O)COc2ccc(CCCOC3CC3)cc2)cc1 [Example 46] | – |
